Laboratory results published in ChEMBL document CHEMBL1770059, “Identification of chemicals to inhibit the kinase activity of leucine-rich repeat kinase 2 (LRRK2), a Parkinson's disease-associated protein” (Bioorg Med Chem Lett, 2011).

Columns and labels:
[1] = target: Glycogen synthase kinase-3 beta (Homo sapiens) (UniProt P49841); test: Inhibition of GSK3-beta assessed as residual activity of enzyme at 10 uM
[2] = target: T1, Mitogen-activated protein kinase kinase kinase 7 (Homo sapiens) (UniProt O43318); test: Inhibition of TAK1 assessed as residual activity of enzyme at 25 uM
T1 sequence (whole entry): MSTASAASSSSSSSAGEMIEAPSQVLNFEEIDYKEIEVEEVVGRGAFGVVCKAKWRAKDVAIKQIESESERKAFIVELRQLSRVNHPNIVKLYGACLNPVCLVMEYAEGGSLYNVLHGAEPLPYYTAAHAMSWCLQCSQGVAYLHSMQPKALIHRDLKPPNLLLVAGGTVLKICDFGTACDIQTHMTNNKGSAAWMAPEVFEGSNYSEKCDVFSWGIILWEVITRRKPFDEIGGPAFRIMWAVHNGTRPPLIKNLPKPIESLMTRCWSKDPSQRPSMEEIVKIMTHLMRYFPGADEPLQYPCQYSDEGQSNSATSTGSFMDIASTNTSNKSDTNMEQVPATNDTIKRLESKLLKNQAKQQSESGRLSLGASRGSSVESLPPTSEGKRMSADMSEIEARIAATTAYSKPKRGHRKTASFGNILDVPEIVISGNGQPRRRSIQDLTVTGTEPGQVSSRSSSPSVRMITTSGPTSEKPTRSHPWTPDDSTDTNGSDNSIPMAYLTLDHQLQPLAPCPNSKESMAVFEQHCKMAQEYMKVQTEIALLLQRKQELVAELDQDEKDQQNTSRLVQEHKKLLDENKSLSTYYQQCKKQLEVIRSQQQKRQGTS

[3] = target: T1, Mitogen-activated protein kinase kinase kinase 7 (Homo sapiens); test: Inhibition of TAK1 assessed as residual activity of enzyme at 10 uM
[4] = target: T2, Serine/threonine-protein kinase TAO3 (Homo sapiens) (UniProt Q9H2K8); test: Inhibition of TAO3 assessed as residual activity of enzyme at 25 uM
T2 sequence (whole entry): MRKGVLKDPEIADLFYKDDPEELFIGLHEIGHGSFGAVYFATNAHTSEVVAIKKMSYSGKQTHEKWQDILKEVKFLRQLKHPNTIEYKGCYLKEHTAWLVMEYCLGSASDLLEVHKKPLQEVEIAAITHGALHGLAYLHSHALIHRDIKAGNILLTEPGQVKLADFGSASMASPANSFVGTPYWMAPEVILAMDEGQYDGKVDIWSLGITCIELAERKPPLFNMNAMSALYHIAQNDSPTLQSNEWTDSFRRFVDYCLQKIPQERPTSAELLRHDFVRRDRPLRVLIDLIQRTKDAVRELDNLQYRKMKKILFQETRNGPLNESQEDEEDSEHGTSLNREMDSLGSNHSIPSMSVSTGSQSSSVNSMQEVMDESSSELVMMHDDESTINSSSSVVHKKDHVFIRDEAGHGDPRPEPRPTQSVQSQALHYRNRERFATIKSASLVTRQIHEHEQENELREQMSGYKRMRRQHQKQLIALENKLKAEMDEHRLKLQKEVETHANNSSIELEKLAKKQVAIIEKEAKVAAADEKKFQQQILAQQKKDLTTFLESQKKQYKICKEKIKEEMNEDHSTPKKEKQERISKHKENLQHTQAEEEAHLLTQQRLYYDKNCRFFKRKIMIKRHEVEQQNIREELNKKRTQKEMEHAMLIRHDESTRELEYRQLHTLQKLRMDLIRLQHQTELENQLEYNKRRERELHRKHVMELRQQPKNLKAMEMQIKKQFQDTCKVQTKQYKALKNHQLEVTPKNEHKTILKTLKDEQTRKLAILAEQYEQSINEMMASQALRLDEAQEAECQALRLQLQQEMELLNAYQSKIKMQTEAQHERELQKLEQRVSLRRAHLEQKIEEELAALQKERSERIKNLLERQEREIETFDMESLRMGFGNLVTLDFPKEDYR

[5] = target: T3, Serine/threonine-protein kinase TAO2 (Homo sapiens) (UniProt Q9UL54); test: Inhibition of TAO2 assessed as residual activity of enzyme at 10 uM
T3 sequence (whole entry): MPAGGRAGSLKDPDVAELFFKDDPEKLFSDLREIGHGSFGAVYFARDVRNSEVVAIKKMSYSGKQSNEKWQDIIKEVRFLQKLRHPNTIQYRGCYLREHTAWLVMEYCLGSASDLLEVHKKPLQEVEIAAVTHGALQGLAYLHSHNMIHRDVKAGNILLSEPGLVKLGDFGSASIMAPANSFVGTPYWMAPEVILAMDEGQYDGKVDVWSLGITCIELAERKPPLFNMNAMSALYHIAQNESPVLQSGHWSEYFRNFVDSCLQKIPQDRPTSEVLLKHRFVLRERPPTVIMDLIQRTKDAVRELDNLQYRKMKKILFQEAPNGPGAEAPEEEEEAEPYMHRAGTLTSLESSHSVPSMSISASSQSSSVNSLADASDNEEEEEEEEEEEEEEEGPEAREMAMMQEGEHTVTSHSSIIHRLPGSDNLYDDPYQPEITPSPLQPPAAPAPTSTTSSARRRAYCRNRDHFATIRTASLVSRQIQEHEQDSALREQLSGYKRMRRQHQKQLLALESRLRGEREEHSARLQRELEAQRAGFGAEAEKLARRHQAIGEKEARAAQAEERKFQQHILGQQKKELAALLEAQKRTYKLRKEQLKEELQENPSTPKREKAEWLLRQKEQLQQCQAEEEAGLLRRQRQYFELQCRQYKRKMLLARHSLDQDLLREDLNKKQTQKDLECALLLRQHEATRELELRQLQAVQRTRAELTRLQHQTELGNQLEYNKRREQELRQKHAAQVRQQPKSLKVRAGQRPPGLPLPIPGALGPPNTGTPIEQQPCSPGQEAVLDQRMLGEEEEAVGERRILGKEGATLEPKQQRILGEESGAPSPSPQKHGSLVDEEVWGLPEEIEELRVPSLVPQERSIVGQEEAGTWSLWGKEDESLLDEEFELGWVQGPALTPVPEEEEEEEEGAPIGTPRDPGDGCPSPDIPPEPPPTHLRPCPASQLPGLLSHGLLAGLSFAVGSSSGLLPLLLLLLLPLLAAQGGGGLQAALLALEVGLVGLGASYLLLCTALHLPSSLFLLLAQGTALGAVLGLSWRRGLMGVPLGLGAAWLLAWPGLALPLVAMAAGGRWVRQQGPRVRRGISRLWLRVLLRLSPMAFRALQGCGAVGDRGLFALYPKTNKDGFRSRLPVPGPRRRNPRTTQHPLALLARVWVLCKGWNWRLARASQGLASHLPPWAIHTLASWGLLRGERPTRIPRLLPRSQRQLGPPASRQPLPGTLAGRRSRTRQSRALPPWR

[6] = target: Leucine-rich repeat serine/threonine-protein kinase 2 (Homo sapiens, UniProt Q5S007, G2019S); test: Inhibition of purified N-terminal GST-tagged LRRK2 G2019S mutant autophosphorylation activity using myelin basic protein as substrate
Sequence of Leucine-rich repeat serine/threonine-protein kinase 2 (Q5S007 whole entry G2019S): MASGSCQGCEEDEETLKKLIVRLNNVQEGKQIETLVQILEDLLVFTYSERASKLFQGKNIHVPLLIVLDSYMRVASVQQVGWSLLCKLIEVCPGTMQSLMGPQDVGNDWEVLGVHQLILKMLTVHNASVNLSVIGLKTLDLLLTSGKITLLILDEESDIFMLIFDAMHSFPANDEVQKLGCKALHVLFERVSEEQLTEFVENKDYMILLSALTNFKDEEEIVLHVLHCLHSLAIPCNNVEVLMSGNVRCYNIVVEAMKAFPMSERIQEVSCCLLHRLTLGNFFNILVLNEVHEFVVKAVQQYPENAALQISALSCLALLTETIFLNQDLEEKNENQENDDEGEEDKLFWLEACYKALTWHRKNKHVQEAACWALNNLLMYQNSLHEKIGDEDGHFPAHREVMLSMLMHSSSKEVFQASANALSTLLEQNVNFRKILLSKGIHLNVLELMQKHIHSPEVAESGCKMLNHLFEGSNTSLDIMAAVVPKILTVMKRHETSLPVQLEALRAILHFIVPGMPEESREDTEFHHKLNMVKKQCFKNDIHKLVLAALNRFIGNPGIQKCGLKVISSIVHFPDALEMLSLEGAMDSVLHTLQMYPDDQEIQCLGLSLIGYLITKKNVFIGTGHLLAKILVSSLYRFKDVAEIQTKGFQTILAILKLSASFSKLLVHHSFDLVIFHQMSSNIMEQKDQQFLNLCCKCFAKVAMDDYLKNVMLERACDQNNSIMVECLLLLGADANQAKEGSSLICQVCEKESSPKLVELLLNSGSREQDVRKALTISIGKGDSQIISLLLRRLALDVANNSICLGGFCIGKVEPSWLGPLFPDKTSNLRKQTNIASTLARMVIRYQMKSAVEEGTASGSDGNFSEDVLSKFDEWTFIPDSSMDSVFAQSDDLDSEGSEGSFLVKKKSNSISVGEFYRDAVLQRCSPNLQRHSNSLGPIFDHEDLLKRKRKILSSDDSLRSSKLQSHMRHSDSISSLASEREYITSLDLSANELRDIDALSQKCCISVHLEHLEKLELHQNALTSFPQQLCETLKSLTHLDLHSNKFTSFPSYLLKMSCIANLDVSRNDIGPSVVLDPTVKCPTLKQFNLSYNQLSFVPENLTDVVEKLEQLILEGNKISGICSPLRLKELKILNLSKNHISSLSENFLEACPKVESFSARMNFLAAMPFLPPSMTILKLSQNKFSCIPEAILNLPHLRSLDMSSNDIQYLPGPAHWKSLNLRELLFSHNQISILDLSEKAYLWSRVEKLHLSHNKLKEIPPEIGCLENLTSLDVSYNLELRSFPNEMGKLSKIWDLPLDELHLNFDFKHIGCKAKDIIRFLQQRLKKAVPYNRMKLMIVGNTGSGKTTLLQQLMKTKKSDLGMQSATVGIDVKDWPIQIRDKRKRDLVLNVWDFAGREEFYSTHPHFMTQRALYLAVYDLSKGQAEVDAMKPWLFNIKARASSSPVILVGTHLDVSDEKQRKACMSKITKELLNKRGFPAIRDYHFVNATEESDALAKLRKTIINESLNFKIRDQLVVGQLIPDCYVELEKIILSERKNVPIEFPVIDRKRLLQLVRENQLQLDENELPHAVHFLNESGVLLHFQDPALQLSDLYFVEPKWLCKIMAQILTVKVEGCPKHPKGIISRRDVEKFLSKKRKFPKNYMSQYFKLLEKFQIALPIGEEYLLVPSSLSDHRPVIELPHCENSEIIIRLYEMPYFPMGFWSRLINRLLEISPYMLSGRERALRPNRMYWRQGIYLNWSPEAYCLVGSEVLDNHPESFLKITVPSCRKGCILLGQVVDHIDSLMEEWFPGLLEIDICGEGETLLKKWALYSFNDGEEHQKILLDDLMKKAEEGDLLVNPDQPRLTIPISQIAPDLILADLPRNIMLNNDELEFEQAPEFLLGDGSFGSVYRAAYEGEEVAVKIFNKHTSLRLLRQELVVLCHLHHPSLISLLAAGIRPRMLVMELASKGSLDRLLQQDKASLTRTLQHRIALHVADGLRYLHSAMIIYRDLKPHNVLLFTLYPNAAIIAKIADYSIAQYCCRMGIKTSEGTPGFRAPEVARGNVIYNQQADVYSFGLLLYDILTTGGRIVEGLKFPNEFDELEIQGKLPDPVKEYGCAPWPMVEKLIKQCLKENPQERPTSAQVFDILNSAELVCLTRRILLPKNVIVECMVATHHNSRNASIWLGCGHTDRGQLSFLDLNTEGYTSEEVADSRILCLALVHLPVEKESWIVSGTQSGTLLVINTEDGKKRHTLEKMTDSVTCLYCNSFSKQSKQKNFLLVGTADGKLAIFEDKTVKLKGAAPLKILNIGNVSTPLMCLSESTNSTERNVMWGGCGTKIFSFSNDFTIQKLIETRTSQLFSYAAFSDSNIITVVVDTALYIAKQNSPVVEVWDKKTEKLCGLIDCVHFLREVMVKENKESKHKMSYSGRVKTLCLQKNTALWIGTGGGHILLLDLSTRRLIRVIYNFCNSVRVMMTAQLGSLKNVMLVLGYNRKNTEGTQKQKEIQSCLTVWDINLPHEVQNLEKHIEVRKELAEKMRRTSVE

[7] = target: RAF proto-oncogene serine/threonine-protein kinase (Homo sapiens) (UniProt P04049); test: Inhibition of c-Raf assessed as residual activity of enzyme at 10 uM
Sequence of RAF proto-oncogene serine/threonine-protein kinase (Homo sapiens) (P04049 whole entry): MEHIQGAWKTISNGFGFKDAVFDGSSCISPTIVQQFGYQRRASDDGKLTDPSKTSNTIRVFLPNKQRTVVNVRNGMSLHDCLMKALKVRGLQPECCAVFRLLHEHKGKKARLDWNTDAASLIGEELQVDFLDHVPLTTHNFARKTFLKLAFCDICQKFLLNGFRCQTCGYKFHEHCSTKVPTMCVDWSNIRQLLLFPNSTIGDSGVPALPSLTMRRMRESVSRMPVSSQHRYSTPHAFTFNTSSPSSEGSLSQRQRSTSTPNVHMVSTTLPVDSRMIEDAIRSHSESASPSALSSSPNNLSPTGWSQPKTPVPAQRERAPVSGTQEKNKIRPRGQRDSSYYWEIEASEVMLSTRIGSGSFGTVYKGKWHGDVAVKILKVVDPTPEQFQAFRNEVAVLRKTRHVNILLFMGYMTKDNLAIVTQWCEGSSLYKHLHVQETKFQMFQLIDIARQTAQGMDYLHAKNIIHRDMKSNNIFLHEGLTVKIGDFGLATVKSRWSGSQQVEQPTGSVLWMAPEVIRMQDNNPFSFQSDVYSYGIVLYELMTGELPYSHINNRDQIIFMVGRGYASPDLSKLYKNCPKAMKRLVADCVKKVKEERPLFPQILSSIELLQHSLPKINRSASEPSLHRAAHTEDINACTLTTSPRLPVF

Sequence of Glycogen synthase kinase-3 beta (Homo sapiens) (P49841 whole entry, looked up): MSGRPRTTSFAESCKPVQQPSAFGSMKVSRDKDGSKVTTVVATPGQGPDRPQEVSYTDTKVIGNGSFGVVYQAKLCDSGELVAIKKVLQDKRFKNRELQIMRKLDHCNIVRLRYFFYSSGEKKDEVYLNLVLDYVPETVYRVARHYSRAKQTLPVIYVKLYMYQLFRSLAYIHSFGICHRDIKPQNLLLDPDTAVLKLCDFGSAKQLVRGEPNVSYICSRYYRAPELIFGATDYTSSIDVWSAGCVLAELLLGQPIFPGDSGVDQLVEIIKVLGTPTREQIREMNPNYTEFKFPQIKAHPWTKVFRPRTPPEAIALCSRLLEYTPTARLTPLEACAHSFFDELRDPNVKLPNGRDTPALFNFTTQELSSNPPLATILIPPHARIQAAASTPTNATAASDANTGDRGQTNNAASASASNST

An Activity [1] of 99%, an Activity [2] of 48% and an Activity [3] of 68% were found for `Cc1cc(N/N=C/c2ccncc2)nc2ccccc12` in this work. For the same compound, the Activity [4] was 81%, the Activity [5] was 89% and the IC50 [6] was 4.1 µM. The Activity [7] was 92%.
